In ChEMBL document CHEMBL1122093, “Preparation of the alpha and beta anomers of 9-(3,5-dideoxy-D-glycero-pent-4-enofuranosyl)adenine and their activity with leukemia L1210 cells in vitro” (1982):

Columns and labels:
[1] = system: L1210; assay: In vitro for the inhibitory activity against L1210 leukemia cells at a concentration 3.2x10 E -4 M; assay type: functional; details: Mus musculus
[2] = system: L1210; assay: In vitro for the inhibitory activity against L1210 leukemia cells at a concentration 3.4x10 E -4 M; assay type: functional; details: Mus musculus

Row | SMILES | inhibition at 320 µM [1] | inhibition at 340 µM [2]
1 | C=C1C[C@@H](O)[C@H](n2cnc3c(N)ncnc32)O1 | 50% | 
2 | C=C1C[C@@H](O)[C@@H](n2cnc3c(N)ncnc32)O1 |  | 50%
